Experimental findings from patent publication US6573289B1, “Naphthalene derivatives, their production and use” (Takeda Chemical Industries, Ltd., priority 1998, dated 2003) are described below.

Where a name gives a salt, the structure may show the parent alone.

Experiment [1] deals with testosterone biosynthesis. Kind of experiment: Assay of inhibitory activity on testosterone biosynthesis in rat. Particulars: male SD rats, oral, 50 mg/kg, serum testosterone 2 h later, percentage of control group. The class given is in vivo. As to the method:
Assay of Inhibitory Activity on Testosterone Biosynthesis in Rat
Test compounds were orally administered to 9-week old, male SD (Spague-Dawley) rats at a dose of 50 mg/kg. Two-h later blood was taken and testosterone concentration in serum was measured by radioimmunoassay. The percentage of the testosterone concentration of the groups of rats, which received test compounds, to that of the control group was calculated, and regarded as the inhibitory activity.

The target in experiment [2] is T1, Rat Steroid C17-20-Lyase (Rattus norvegicus, UniProt P11715).
T1 construct: testicular microsomes were prepared by a series of centrifugation; from tissue; host or cells: testicular microsomes of 13-week old male SD rats
T1 sequence (P11715 1-507): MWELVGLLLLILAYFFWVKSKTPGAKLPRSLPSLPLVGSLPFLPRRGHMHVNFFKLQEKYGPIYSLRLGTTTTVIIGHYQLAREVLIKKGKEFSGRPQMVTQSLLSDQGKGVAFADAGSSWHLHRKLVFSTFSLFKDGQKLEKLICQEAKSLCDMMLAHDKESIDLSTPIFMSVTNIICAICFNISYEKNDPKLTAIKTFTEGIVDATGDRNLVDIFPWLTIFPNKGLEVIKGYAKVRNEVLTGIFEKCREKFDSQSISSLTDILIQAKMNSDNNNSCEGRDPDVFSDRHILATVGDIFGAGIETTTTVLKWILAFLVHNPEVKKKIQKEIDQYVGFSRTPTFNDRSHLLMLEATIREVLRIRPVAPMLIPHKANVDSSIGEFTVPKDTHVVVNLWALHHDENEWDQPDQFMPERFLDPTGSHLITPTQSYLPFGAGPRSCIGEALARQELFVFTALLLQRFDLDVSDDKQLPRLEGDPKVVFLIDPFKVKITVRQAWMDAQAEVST
Kind of experiment: Assay of inhibitory activity on rat steroid C17-20-lyase in vitro. Type of experiment: biochemical. Particulars: rat testicular microsomes, 10 nM [1,2-3H]-17-α-hydroxyprogesterone, NADPH, 7 min at 37° C.; products testosterone and androstenedione reduced by 50%. As to the method:
Assay of Inhibitory Activity on Rat Steroid C17-20-Lyase In Vitro
Inhibitory activity was determined according to the method described in The Prostate, vol.26, 140-150(1995) with some modifications.
Testes excised from 13-week old, male SD rats were homogenized, and testicular microsomes were prepared by a series of centrifugation. The microsome protein (7 μg/10 μl) was added to 10 μl of 100 mM phosphate buffer (pH 7.4) in which 10 nM (final concentration) [1,2-3H]-17-α-hydroxyprogesterone, NADPH, and test compounds were dissolved. The reaction mixture was incubated for 7 min at 37° C., terminated by addition of 40 μl of Ethyl acetate, and briefly centrifuged. The substrate and the products (testosterone and androstenedione) in the upper phase were separated by silica gel thin layer chromatography. Detection of the spots and measurement of the radioactivity were performed by a BAS 2000 Bioimage analyzer. The concentration of the test compounds necessary to reduce the concentration of the products by 50% (The concentration in the control group in which no test compound was added was taken as 100%) was calculated, and shown in Table 1.

By IC50 is commonly meant the concentration needed to halve the response being measured. A low value points to greater potency. On to `COc1ccc2cc(C(O)(c3c[nH]cn3)C(C)C)ccc2c1` (stereo not drawn) [Example 1, 1-(1H-Imidazol-4-yl)-1-(6-methoxynaphthalen-2-yl)-2-methyl-1-propanol], for which the “Inhibitory activity on testosterone biosynthesis (T/C, %)” value (shortened to “Inhibitory activity … (T/C, %)”) in experiment [1] amounted to 2.0%. The same compound gave a concentration for half-maximal inhibition (IC50) in experiment [2] of 33 nM. In turn, `COc1ccc2cc(C(O)(c3c[nH]cn3)C3CC3)ccc2c1` (stereo not drawn) [Example 4, Cyclopropyl-(6-methoxynaphthalen-2-yl)-(1H-imidazol-4-yl)methanol Fumarate] had an IC50 in experiment [2] of 64 nM. `COc1ccc2cc(C(O)(c3ccncc3)C(C)C)ccc2c1` (stereo not drawn) [Example 9, 1-(6-Methoxynaphthalen-2-yl)-2-methyl-1-(pyridin-4-yl)-1-propanol] had an IC50 in experiment [2] of 32 nM. As for `COc1ccc2cc(C(O)(c3c[nH]cn3)C(C)C)ccc2c1F` (stereo not drawn) [Example 11, 1-(5-Fluoro-6-methoxynaphthalen-2-yl)-1-(1H-imidazol-4-yl)-2-methyl-1-propanol], the “Inhibitory activity … (T/C, %)” value in experiment [1] was 9.0%. The same compound returned an IC50 in experiment [2] of 32 nM.

As for `CCC(O)(c1ccc2cc(OC)ccc2c1)c1c[nH]cn1` (stereo not drawn) [Example 12, 1-(1H-Imidazol-4-yl)-1-(6-methoxynaphthalen-2-yl)-1-propanol], the “Inhibitory activity … (T/C, %)” value in experiment [1] is listed as 10%. Moreover, the IC50 in experiment [2] came to 41 nM. Consider `COc1ccc2cc(C(C)(OC)c3c[nH]cn3)ccc2c1` (stereo not drawn) [Example 19, 4-[1-Methoxy-1-(6-methoxynaphthalen-2-yl)ethyl]-1H-imidazole], for which half-maximal inhibition in experiment [2] (IC50) was put at 35 nM.
